Data: US7524646B2 (priority 2001, dated 2009)

Columns and labels:
Type in all cases: cell-based, E. coli
[1] = tested on: strain β5498 carrying the valS:T222P allele; experiment: Amino acid composition of total protein after growth with Abu, valS:T222P; conditions: for valine in cellular protein replaced by Abu: whole cell protein, strain harboring the mutant allele, Abu 0.2 mM
Procedure: (§1) We anticipated that ValRS mutants that misincorporated Cys would also misincorporate Abu. […] Whole cell protein was isolated from strain CU505 grown in the presence of Abu (0.2 mM), in the presence or absence of the valS:T222P allele in the host cell. […] Finally, the valine-rich yeast protein AlaXp (swissprot:P53960) was overexpressed and purified from strains containing the valS:T222P allele grown in the presence of Abu. The protein samples were digested by trypsin and analyzed by mass spectrometry. […] For a given peptide the degree of misincorporation ranged between 9.5% and 18% per Val codon. Sequencing of several Abu-containing peptides confirmed that Abu was specifically misincorporated into positions designated by Val codons.
(§2) Table 2. Incorporation of Abu into cells bearing wild-type and T222P mutant alleles of valS. Cultures of the Δilv strain CU505 (19) and the isogenic strain β5498 carrying the valS:T222P allele were grown overnight in minimal medium (27) with Ile-Leu (0.3 mM) and limiting valine (0.04 mM Ile-Val), diluted (1/2), and adjusted with Ile-Val (0.02 mM) with or without Abu (0.2 mM). After 24 hours of growth, total protein was extracted as follows. Cells were first harvested by centrifugation and washed in cold 10% trichloroacetic acid (TCA, 1/2 of the culture volume). Cells were then re-centrifuged at 4000×g for 10 min, resuspended in cold 10% TCA (1/10 of the culture volume) and centrifuged again. The washed cells were resuspended in […], heated at 95° C. for 30 minutes and centrifuged (4000×g, 10 min). The precipitate was washed three times with cold acetone and dissolved in 50 mM NH4HCO3. Proteins were hydrolyzed in 6 N HCl-0.2% phenol at 110C. for 20 h in sealed tubes. Norleucine was added as an internal standard. Aliquots of the hydrolysates were analyzed on a Beckman 6300 Amino Acid Analyzer. Amino acids were quantified by appropriate standards and values are presented relative the wild-type (WT) control that lacked Abu.

[2] = tested on: Δilv strain CU505 (wild-type valS); experiment: Amino acid composition of total protein after growth with Abu, wild-type valS; conditions: WT + Abu (0.2 mM); 24 hours; relative to WT control that lacked Abu
Procedure: as §1, §2

valine auxotroph CU505 = experiment: Growth of valine auxotroph with limiting valine and increasing Abu, wild-type valS; conditions: up to 1 mM Abu; OD 600 nm, 24 h, 30° C.
Procedure: (§3) FIG. 3. A graph showing the results of growth of the valine auxotroph CU505 in the presence of a limiting supply of valine and increasing concentrations of Abu. Overnight cultures of Δilv auxotrophs containing the WT valS (É) or the mutant valS:T222P allele (J) and grown in MS glucose medium with limiting valine (0.04 mM Ile-Val. 0.3 mM Ile-Leu) were diluted 1/1, the Val concentration was adjusted to 0.02 mM and the biomass was determined by measuring the optical density at 600 nm after 24 h of growth at 30° C.
(§4) Abu misincorporation. The valine auxotroph CU505 (33) was grown in the presence of a limiting supply of valine and increasing concentrations of Abu (FIG. 3). […] In contrast, when the valST222P allele was introduced into the chromosome (strain β5498), the yield of cells was diminished in the absence of Abu but increased up to 30% when Abu (0.2 mM) was added.

[3] = tested on: strain β5456 (valS:T222P); experiment: Growth on Abu gradient plates, valS:T222P strain; conditions: gradient plate, 50 μl 0.1 M, 2 days at 37° C.
Procedure: FIG. 1C: Photographs showing the results of growth of a strain carrying the valS:T222P allele in the presence of L-threonine or Abu. Minimal medium plates supplemented with thymidine (0.3 mM) were pretreated with amino acid solutions by streaking either with Thr (50 μl (0.2 M)) or Abu (50 μl (0.1 M)) vertically along the diameter of the plate to create an amino acid gradient. Mutant (β5456) and wild-type (β5419 (thyA::erm+ ΔnrdD::kan+ pTS13 (bla+ thyA: 146GUA)) strains were then streaked horizontally across the plates and incubated for 2 days at 37° C.
as §1

[4] = tested on: strain β5498 (valS:T222P allele); experiment: Growth of valine auxotroph with limiting valine and Abu, valS:T222P; conditions: Abu 0.2 mM; limiting valine 0.02 mM; OD 600 nm, 24 h, 30° C.
Procedure: as §3, §4

[5] = T222P + Abu (0.2 mM), 24 hours, relative to WT control that lacked Abu

CCC(N)C(=O)O (stereo not drawn) [Abu, α-aminobutyric acid]
Abu incorporated into total protein [1, 5]: 0.24
Ala incorporated into total protein [1, 5]: 0.92
Ile incorporated into total protein [1, 5]: 1.0
Val + Abu incorporated into total protein [1, 5]: 0.97
Val incorporated into total protein [1, 5]: 0.73
valine in cellular protein replaced by Abu [1]: 24%
valine in cellular protein replaced by Abu ([1]; listed as aminobutyrate): Over 20%
Abu incorporated into total protein [2]: 0.0
Ala incorporated into total protein [2]: 1.0
Ile incorporated into total protein [2]: 1.0
Val + Abu incorporated into total protein [2]: 1.0
Val incorporated into total protein [2]: 1.0
biomass of cells relative to the valine concentration (valine auxotroph CU505): did not change
sensitivity of growth to Abu [3]: sensitive
increase of yield of cells [4]: up to 30%
